Tests used:
Type in all cases: cell-based
[1] = test system: Staphylococcus hominis DMS 20328 (= SH); test: MIC determination in microtiter plates, Staphylococcus hominis; settings: Tables 2a/2b, 48 hours at 37° C., ≦20% growth, optical density 620 nm, tested at 120, 60, 30, 15, 7.5 and 3.5 ppm, some approximate
Procedure: (§1) Determination of the Minimum Inhibitory Concentration (MIC Value) in Microtiter Plates
(§2) Casein/soybean flour peptone bouillon for the preparation of pre-cultures of the test bacteria and yeast.
(§3) Mycological slant agar for the pre-culture of moulds
(§4) The test substances are pre-dissolved in dimethyl sulfoxide (DMSO) and tested in a dilution series of 1:2.
(§5) Bacteria and yeast are cultured overnight in CASO bouillon, the mould is cultured overnight on mycological slant agar, and washed off with 10 ml of 0.85% sodium chloride solution (+0.1% TritonX-100).
(§6) All the test organisms are adjusted to an organism count of 1−5×10^6 CFU/ml using 0.85% sodium chloride solution.
(§7) The test substances are pre-pipetted into microtiter plates in an amount of 8 μl per well.
(§8) Pre-diluted organism suspensions are diluted 1:100 in CASO bouillon (bacteria and yeast) or Sabouraud 2% glucose bouillon (mould) and are added in an amount of 192 μl per well to the test substances.
(§9) The test batches are incubated for 48 hours at 37° C. (bacteria and yeast) or for 5 days at 28° C. (mould).
(§10) After incubation, the growth is evaluated by reference to the turbidity of the test batches (optical density) at 620 nm in a microplate reader.
(§11) One microtiter plate is used for each test organism and substance concentration. All the substances are tested in duplicate.

[2] = test system: Escherichia coli NCTC 8196 (= EC); test: MIC determination in microtiter plates, Escherichia coli; settings: Tables 2a/2b, 48 hours at 37° C., ≦20% growth, optical density 620 nm, some approximate values
Procedure: as §1, §2, §3, §4, §5, §6, §7, §8, §9, §10, §11

[3] = test system: Candida albicans ATCC 10231 (= CA); test: MIC determination in microtiter plates, Candida albicans; settings: Tables 2a/2b, 48 hours at 37° C., ≦20% growth, optical density 620 nm, some approximate values
Procedure: as §1, §2, §3, §4, §5, §6, §7, §8, §9, §10, §11

[4] = test system: Aspergillus niger ATCC 6275 (= AN); test: MIC determination in microtiter plates, Aspergillus niger; settings: Tables 2a/2b, 5 days at 28° C., ≦20% growth, optical density 620 nm, some approximate values
Procedure: as §1, §2, §3, §4, §5, §6, §7, §8, §9, §10, §11

[5] = test system: Pseudomonas aeruginosa CIP A-22 (= PA); test: MIC determination in microtiter plates, Pseudomonas aeruginosa; settings: Tables 2a/2b, 48 hours at 37° C., ≦20% growth, optical density 620 nm, some approximate values
Procedure: as §1, §2, §3, §4, §5, §6, §7, §8, §9, §10, §11

Compound	MIC [ppm] SH [1] [ppm]	MIC [ppm] EC [2] [ppm]	MIC [ppm] CA [3] [ppm]	MIC [ppm] AN [4] [ppm]	MIC [ppm] PA [5] [ppm]
NCCc1cc(OCC(=O)c2ccc(F)cc2)c(OCC(=O)c2ccc(F)cc2)c(OCC(=O)c2ccc(F)cc2)c1 [Compound 99]	60	60	>120	>120	>120
CCCCCCCCOc1ccc(CCN)cc1OCCCCCCCC [Compound 38]	7.5	>120	>120	>120	>120
CC(C)(C)OC(=O)COc1ccc(CCN)cc1OCC(=O)OC(C)(C)C [Compound 25]	>120	>120	>120	15	>120
NCCc1ccc(OCc2ccc(F)cc2)c(OCc2ccc(F)cc2)c1 [Compound 17]	12	24	60	>120	>120
CCOC(=O)COc1ccc(CCN)cc1OCC(=O)OCC [Compound 22]	>120	>120	>120	>120	>120
NCCc1ccc(OCc2cccc(F)c2)c(OCc2cccc(F)c2)c1 [Compound 16]	7.5	7.5	7.5	>120	120
NCCc1ccc(OCc2cccc(C(F)(F)F)c2)c(OCc2cccc(C(F)(F)F)c2)c1 [Compound 9]	3.75	3.75	7.5	>120	>120
C=CCOc1ccc(CCN)cc1OCC=C [Compound 42]	>120	>120	>120	>120	>120
NCCc1cc(OCC(=O)c2ccccc2)c(OCC(=O)c2ccccc2)c(OCC(=O)c2ccccc2)c1 [Compound 97]	>120	>120	>120	>120	>120
N#Cc1ccc(COc2cc(CCN)cc(OCc3ccc(C#N)cc3)c2OCc2ccc(C#N)cc2)cc1 [Compound 64]	>120	>120	60	15	>120
Cc1ccc(COc2ccc(CCN)cc2OCc2ccc(C)cc2)cc1 [Compound 7]	3.75	7.5	3.75	>120	120
CCCOC(=O)COc1ccc(CCN)cc1OCC(=O)OCCC [Compound 23]	>120	>120	>120	15	>120
NCCc1ccc(OCc2ccc3ccccc3c2)c(OCc2ccc3ccccc3c2)c1 [Compound 20]	3.75	>120	>120	>120	>120
COC(=O)COc1cc(CCN)cc(OCC(=O)OC)c1OCC(=O)OC [Compound 72]	>120	>120	>120	>120	>120
NCCc1ccc(OCc2ccc(C(F)(F)F)cc2)c(OCc2ccc(C(F)(F)F)cc2)c1 [Compound 10]	3.75	7.5	3.75	>120	>120
CCCOc1cc(CCN)cc(OCCC)c1OCCC [Compound 80]	120	120	>120	120	>120
CCOC(=O)CCCCOc1cc(CCN)cc(OCCCCC(=O)OCC)c1OCCCCC(=O)OCC [Compound 79]	>120	>120	>120	120	>120

Compound	MIC [ppm] SH [1] [ppm]	MIC [ppm] EC [2] [ppm]	MIC [ppm] CA [3] [ppm]	MIC [ppm] AN [4] [ppm]	MIC [ppm] PA [5] [ppm]
NCCc1cc(OCc2cccc(F)c2)c(OCc2cccc(F)c2)c(OCc2cccc(F)c2)c1 [Compound 67]	3.75	7.5	7.5	>120	>120
Cc1ccccc1COc1ccc(CCN)cc1OCc1ccccc1C [Compound 5]	7.5	15	15	7.5	>120
CC(C)Oc1cc(CCN)cc(OC(C)C)c1OC(C)C [Compound 82]	>120	>120	>120	>120	>120
NCCc1cc(OCc2ccc3ccccc3c2)c(OCc2ccc3ccccc3c2)c(OCc2ccc3ccccc3c2)c1 [Compound 71]	>120	>120	>120	>120	>120
N#Cc1ccc(COc2ccc(CCN)cc2OCc2ccc(C#N)cc2)cc1 [Compound 13]	120	120	>120	>120	>120
CC(C)OC(=O)COc1cc(CCN)cc(OCC(=O)OC(C)C)c1OCC(=O)OC(C)C [Compound 75]	60	>120	>120	>120	>120
CC(C)OC(=O)COc1ccc(CCN)cc1OCC(=O)OC(C)C [Compound 24]	>120	>120	>120	15	>120
CC(C)CCOc1cc(CCN)cc(OCCC(C)C)c1OCCC(C)C [Compound 84]	3.75	7.5	15	15	>120
CCC(CC)Oc1ccc(CCN)cc1OC(CC)CC [Compound 35]	60	60	60	>120	>120
CCCCCCOc1ccc(CCN)cc1OCCCCCC [Compound 36]	3.75	3.75	3.75	>120	>120
NCCc1cc(OCc2ccccc2)c(OCc2ccccc2)c(OCc2ccccc2)c1 [Compound 70]	7.5	7.5	15	>120	>120
CC(C)(C)c1ccc(COc2ccc(CCN)cc2OCc2ccc(C(C)(C)C)cc2)cc1 [Compound 18]	1.9	>60	60	>120	>120
COc1cccc(COc2ccc(CCN)cc2OCc2cccc(OC)c2)c1 [Compound 4]	30	60	60	7.5	>120
NCCc1cc(OCC(=O)OCc2ccccc2)c(OCC(=O)OCc2ccccc2)c(OCC(=O)OCc2ccccc2)c1 [Compound 77]	120	>120	>120	>120	>120
NCCc1ccc(OCc2ccccc2F)c(OCc2ccccc2F)c1 [Compound 15]	30	30	30	>120	120
N#Cc1ccccc1COc1ccc(CCN)cc1OCc1ccccc1C#N [Compound 11]	120	>120	>120	>120	>120
CC(C)(C)OC(=O)COc1cc(CCN)cc(OCC(=O)OC(C)(C)C)c1OCC(=O)OC(C)(C)C [Compound 76]		>120	>120	>120	>120
